According to US10738028B2, “Spiro three-membered ring, spiro five-membered ring peptide deformylase inhibitor and use thereof in antibacteria and anti-tumor” (priority 2016, dated 2020):

Tests used:
Format in all cases: cell-based
[1] = system: Enterococcus faecalis (EFA); assay: MIC, two-fold agar dilution (CLSI), clinical isolates
How it was run: (§1)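 Samples are serially diluted two-fold in agar following CLSI guidance. Plates are then inoculated with the tested strains. The lowest inhibiting concentration is recorded as MIC.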

[2] = system: Enterococcus faecium (EFM); assay: as above
How it was run: as §1

[3] = system: Escherichia coli (including ESBLs, non-ESBLs); assay: as above
How it was run: as §1

[4] = system: Moraxella catarrhalis (BCA); assay: as above
How it was run: as §1

[5] = system: Streptococcus pneoumoniae (SPN); assay: as above
How it was run: as §1

[6] = system: methicillin-resistant Staphylococcus aureus (MRSA); assay: as above
How it was run: as §1

[7] = system: methicillin-resistant Staphylococcus epidermidis (MRSE); assay: as above
How it was run: as §1

[8] = system: methicillin-sensitive Staphylococcus aureus (MSSA); assay: as above
How it was run: as §1

[9] = system: methicillin-sensitive Staphylococcus epidermidis (MSSE); assay: as above
How it was run: as §1

[10] = system: HCT-116 colorectal cancer cell line; assay: CCK-8 proliferation inhibition; conditions: concentration of 30 μM; 72 hours; CCK-8; 30 µM
How it was run: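 HCT-116 cells, seeded at 2000 cells/well in McCoy's 5A with 10% newborn bovine serum, were cultured overnight at 37° C., 5% CO2, then exposed to compound dilutions in medium for 72 hours. Viability was read with 1:10 diluted CCK-8; controls received 1‰ DMSO.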

[11] = system: A549 lung cancer cell line; assay: CCK-8 proliferation inhibition; conditions: concentration of 30 μM
How it was run: (§2)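 Plating at 2000 cells/well, then incubation overnight at 37° C. Next, a range of compound concentrations for 72 hours (control 1‰ DMSO). Finally, medium decanted and CCK-8 diluted 1:10 added.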

[12] = system: BEL-7402 liver cancer cell line; assay: CCK-8 proliferation inhibition; conditions: concentration of 30 μM, 72 hours, 30 µM
How it was run: as §2

[13] = system: MGC-803 gastric cancer cell line; assay: CCK-8 proliferation inhibition; conditions: concentration of 30 μM, 72 hours, 30 µM
How it was run: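 Cells were seeded at 2000 cells/well and cultured overnight at 37° C, 5% CO2, then exposed for 72 hours to compounds diluted from DMSO stocks. Controls received 1‰ DMSO. CCK-8 (1:10 diluted) replaced the medium. MGC-803 and Jurkat were grown in 1640, PC3 in F12, and MCF-7 in DMEM high glucose, each with 10% newborn bovine serum.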

`Cc1cnc(NC(=O)[C@@H]2CC3(CC3)CN2C(=O)[C@@H](CC(=O)NO)CC2CCCC2)s1` [Example 65] was tested, and the Anti-bacterial activity (MIC), strain EFA 15-1 ([1]; clinical isolate EFA 15-1) was 32 µg/mL, the Anti-bacterial activity (MIC), strain EFA 15-2 ([1]; clinical isolate EFA 15-2) was 32 µg/mL and the Anti-bacterial activity (MIC), strain EFA 15-3 ([1]; clinical isolate EFA 15-3) was 32 µg/mL. The Anti-bacterial activity (MIC), strain EFA 15-4 ([1]; clinical isolate EFA 15-4) was 32 µg/mL, the Anti-bacterial activity (MIC), strain EFA 15-5 ([1]; clinical isolate EFA 15-5) was 32 µg/mL and the Anti-bacterial activity (MIC), strain EFA 15-6 ([1]; clinical isolate EFA 15-6) was > 32 µg/mL. For the same compound, the Anti-bacterial activity (MIC), strain EFA 15-9 ([1]; clinical isolate EFA 15-9) was 4 µg/mL, the Anti-bacterial activity (MIC), strain EFM 15-1 ([2]; clinical isolate EFM 15-1) was > 32 µg/mL and the Anti-bacterial activity (MIC), strain EFM 15-2 ([2]; clinical isolate EFM 15-2) was > 32 µg/mL. For the same compound, the Anti-bacterial activity (MIC), strain EFM 15-3 ([2]; clinical isolate EFM 15-3) was > 32 µg/mL, the Anti-bacterial activity (MIC), strain EFM 15-4 ([2]; clinical isolate EFM 15-4) was 0.25 µg/mL and the Anti-bacterial activity (MIC), strain EFM 15-5 ([2]; clinical isolate EFM 15-5) was 0.125 µg/mL. The Anti-bacterial activity (MIC), strain EFM 15-6 ([2]; clinical isolate EFM 15-6) was 1 µg/mL, the Anti-bacterial activity (MIC), strain ECO+ 15-1 ([3]; clinical isolate ECO+ 15-1) was 8 µg/mL and the Anti-bacterial activity (MIC), strain ECO+ 15-2 ([3]; clinical isolate ECO+ 15-2) was 8 µg/mL. The Anti-bacterial activity (MIC), strain ECO+ 15-3 ([3]; clinical isolate ECO+ 15-3) was 16 µg/mL, the Anti-bacterial activity (MIC), strain ECO+ 15-4 ([3]; clinical isolate ECO+ 15-4) was 16 µg/mL and the Anti-bacterial activity (MIC), strain ECO− 15-1 ([3]; clinical isolate ECO− 15-1) was 8 µg/mL. The Anti-bacterial activity (MIC), strain ECO− 15-2 ([3]; clinical isolate ECO− 15-2) was 16 µg/mL, the Anti-bacterial activity (MIC), strain ECO− 15-3 ([3]; clinical isolate ECO− 15-3) was 16 µg/mL and the Anti-bacterial activity (MIC), strain ECO− 15-4 ([3]; clinical isolate ECO− 15-4) was 8 µg/mL. It also gave an Anti-bacterial activity (MIC), strain BCA 14-1 ([4]; clinical isolate BCA 14-1) of 0.5 µg/mL, an Anti-bacterial activity (MIC), strain BCA 14-4 ([4]; clinical isolate BCA 14-4) of 0.5 µg/mL and an Anti-bacterial activity (MIC), strain BCA 14-5 ([4]; clinical isolate BCA 14-5) of 0.125 µg/mL. It also gave an Anti-bacterial activity (MIC), strain BCA 14-6 ([4]; clinical isolate BCA 14-6) of 0.125 µg/mL, an Anti-bacterial activity (MIC), strain BCA 14-7 ([4]; clinical isolate BCA 14-7) of 0.5 µg/mL and an Anti-bacterial activity (MIC), strain BCA 14-8 ([4]; clinical isolate BCA 14-8) of 0.5 µg/mL. The Anti-bacterial activity (MIC), strain BCA 14-10 ([4]; clinical isolate BCA 14-10) was 0.125 µg/mL, the Anti-bacterial activity (MIC), strain SPN 16-2 ([5]; clinical isolate SPN 16-2) was 0.125 µg/mL and the Anti-bacterial activity (MIC), strain SPN 16-4 ([5]; clinical isolate SPN 16-4) was 0.06 µg/mL. The Anti-bacterial activity (MIC), strain MRSA 15-1 ([6]; clinical isolate MRSA 15-1) was 0.06 µg/mL, the Anti-bacterial activity (MIC), strain MRSA 15-2 ([6]; clinical isolate MRSA 15-2) was 0.125 µg/mL and the Anti-bacterial activity (MIC), strain MRSA 15-3 ([6]; clinical isolate MRSA 15-3) was 0.06 µg/mL. It also gave an Anti-bacterial activity (MIC), strain MRSA 15-4 ([6]; clinical isolate MRSA 15-4) of 0.125 µg/mL, an Anti-bacterial activity (MIC), strain MRSE 15-1 ([7]; clinical isolate MRSE 15-1) of 0.015 µg/mL and an Anti-bacterial activity (MIC), strain MRSE 15-2 ([7]; clinical isolate MRSE 15-2) of 0.125 µg/mL. It also gave an Anti-bacterial activity (MIC), strain MRSE 15-3 ([7]; clinical isolate MRSE 15-3) of 0.125 µg/mL, an Anti-bacterial activity (MIC), strain MRSE 15-7 ([7]; clinical isolate MRSE 15-7) of 0.125 µg/mL and an Anti-bacterial activity (MIC), strain MSSA 15-3 ([8]; clinical isolate MSSA 15-3) of 0.125 µg/mL. The Anti-bacterial activity (MIC), strain MSSA 15-4 ([8]; clinical isolate MSSA 15-4) was 0.015 µg/mL, the Anti-bacterial activity (MIC), strain MSSA 15-5 ([8]; clinical isolate MSSA 15-5) was 0.015 µg/mL and the Anti-bacterial activity (MIC), strain MSSA 15-6 ([8]; clinical isolate MSSA 15-6) was 16 µg/mL. For the same compound, the Anti-bacterial activity (MIC), strain MSSE 15-4 ([9]; clinical isolate MSSE 15-4) was 0.125 µg/mL, the Anti-bacterial activity (MIC), strain MSSE 15-5 ([9]; clinical isolate MSSE 15-5) was 0.06 µg/mL and the Anti-bacterial activity (MIC), strain MSSE 15-6 ([9]; clinical isolate MSSE 15-6) was 0.015 µg/mL. For the same compound, the HCT116 inhibition rate/% [10] was 83%, the inhibition at 30 µM ([11]; Homo sapiens, A549, 72 h) was > 50% and the “Inhibition of proliferation, Lung cancer A549” value ([11]; 72 hours, 30 µM) was 67%. The “Inhibition of proliferation, Liver cancer BEL-7402” value [12] was 81% and the “Inhibition of proliferation, Gastric cancer MGC-803” value [13] was 72%.
